Reference: publication PMC11533140 (Frontiers in Pharmacology, 2024)
Read-outs that look alike come from different tables or passages of the source.

Assays:
[1] = pharmacokinetics in SD rats; type: in vivo; design: area under the curve: unit not given here; conditions: for AUC(0-t) / Cmax / half-life / Tmax / bioavailability: rat, plasma; for bioavailability: read-out: F (oral bioavailability)
Protocol: (§1) The in vitro inhibition assays of all final compounds against PI3K were performed by Shanghai ChemPartner Co., Ltd. (China). The antiproliferative activities of the compounds against A2780, U87MG, MCF7, and DU145 cell lines were tested by the standard MTT method. CHO cells stably expressing the transcript of hERG were investigated by the automated whole-cell patch clamp technique, using the QPatch system (Sophion). The compound was tested with Salmonella typhimurium strains TA98 and TA100 with the plate incorporation method at seven doses. Apoptosis was evaluated using the One-Step TUNEL Apoptosis Assay Kit (FITC) (cat. no. MA0223; Meilunbio, Dalian, China), according to the manufacturer’s protocol. Male and female SD rats (SLRC Laboratory Animal Inc., Shanghai, China) were used, and the detailed pharmacokinetic procedures are described in Supplementary Material.
According to the good in vitro properties of compound 17p, we performed pharmacokinetic analyses in male and female SD rats at doses of 10 (po) and 2.5 mg/kg (iv), respectively (Table 9). The pharmacokinetic properties in male and female SD rats were […]. […] Thus, compound 17p had favorable pharmacokinetic properties.

[2] = system: Salmonella typhimurium TA100; assay: Ames test, plate incorporation, TA100; type: cell-based
Protocol: as §1
(§2) S. typhimurium TA98 and TA100 were selected to conduct the Ames experiment to investigate the genotoxicity risk of compound 17p.

DU145 cells = assay: MTT antiproliferative assay, DU145; type: cell-based; conditions: Homo sapiens, DU-145
Protocol: as §1

A2780 cells [3] = assay: TUNEL apoptosis assay in A2780; type: cell-based; conditions: 24 h treatment
Protocol: as §1
The ED50 value of 17p cytotoxicity was determined using a multiple logistic regression model.

hERG potassium currents = molecular target: T1, hERG potassium currents (Homo sapiens, UniProt Q12809); assay: hERG automated whole-cell patch clamp (QPatch), CHO cells; type: cell-based; conditions: in words
T1 construct: expressed in transfected cells
Protocol: as §1
(§3) To evaluate cardiotoxicity, it is necessary to test inhibitory activity on hERG potassium currents.

hERG = molecular target: T2, hERG (Homo sapiens, UniProt Q12809); assay: as above; type: cell-based; conditions: human, CHO cells stably expressing hERG; CHO cells expressing hERG, patch clamp; read-out: IC50 on hERG potassium currents
T2 construct: expressed in transfected cells
Protocol: as §1, §3

PI3Kβ = PI3Kβ (Homo sapiens, UniProt P42338); assay: in vitro PI3Kβ inhibition assay (isoform selectivity); type: biochemical; conditions: Table 4
PI3Kβ, sequence (P42338 whole entry, canonical isoform): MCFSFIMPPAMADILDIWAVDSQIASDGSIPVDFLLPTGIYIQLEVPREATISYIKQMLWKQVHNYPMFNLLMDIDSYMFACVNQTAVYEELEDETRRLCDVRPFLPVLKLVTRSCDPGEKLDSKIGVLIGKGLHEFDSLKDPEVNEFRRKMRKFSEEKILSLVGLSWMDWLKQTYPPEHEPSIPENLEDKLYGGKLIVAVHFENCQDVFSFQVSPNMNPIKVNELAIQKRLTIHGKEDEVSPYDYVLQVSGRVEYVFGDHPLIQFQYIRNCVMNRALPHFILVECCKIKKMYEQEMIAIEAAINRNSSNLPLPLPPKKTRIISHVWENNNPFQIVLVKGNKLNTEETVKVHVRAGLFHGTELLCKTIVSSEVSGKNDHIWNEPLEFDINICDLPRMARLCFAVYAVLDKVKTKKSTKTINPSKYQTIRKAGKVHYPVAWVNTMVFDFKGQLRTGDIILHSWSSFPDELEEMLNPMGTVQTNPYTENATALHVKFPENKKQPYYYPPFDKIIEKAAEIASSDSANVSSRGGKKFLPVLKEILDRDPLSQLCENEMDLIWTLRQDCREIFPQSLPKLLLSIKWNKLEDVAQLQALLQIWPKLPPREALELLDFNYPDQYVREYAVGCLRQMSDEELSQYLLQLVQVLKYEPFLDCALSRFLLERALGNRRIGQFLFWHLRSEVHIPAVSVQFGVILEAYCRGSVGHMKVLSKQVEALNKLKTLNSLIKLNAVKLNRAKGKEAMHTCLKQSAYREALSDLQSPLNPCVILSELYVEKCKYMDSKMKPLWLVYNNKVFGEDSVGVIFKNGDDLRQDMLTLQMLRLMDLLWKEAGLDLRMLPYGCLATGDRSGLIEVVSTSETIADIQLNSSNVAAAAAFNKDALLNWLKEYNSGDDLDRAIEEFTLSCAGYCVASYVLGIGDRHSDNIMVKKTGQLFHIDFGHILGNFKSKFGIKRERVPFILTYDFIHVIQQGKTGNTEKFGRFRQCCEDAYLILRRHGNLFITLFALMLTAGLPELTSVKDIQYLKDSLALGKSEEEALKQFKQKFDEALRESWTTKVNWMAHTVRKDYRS
PI3Kβ, sequence (P27986 whole entry partner, canonical isoform): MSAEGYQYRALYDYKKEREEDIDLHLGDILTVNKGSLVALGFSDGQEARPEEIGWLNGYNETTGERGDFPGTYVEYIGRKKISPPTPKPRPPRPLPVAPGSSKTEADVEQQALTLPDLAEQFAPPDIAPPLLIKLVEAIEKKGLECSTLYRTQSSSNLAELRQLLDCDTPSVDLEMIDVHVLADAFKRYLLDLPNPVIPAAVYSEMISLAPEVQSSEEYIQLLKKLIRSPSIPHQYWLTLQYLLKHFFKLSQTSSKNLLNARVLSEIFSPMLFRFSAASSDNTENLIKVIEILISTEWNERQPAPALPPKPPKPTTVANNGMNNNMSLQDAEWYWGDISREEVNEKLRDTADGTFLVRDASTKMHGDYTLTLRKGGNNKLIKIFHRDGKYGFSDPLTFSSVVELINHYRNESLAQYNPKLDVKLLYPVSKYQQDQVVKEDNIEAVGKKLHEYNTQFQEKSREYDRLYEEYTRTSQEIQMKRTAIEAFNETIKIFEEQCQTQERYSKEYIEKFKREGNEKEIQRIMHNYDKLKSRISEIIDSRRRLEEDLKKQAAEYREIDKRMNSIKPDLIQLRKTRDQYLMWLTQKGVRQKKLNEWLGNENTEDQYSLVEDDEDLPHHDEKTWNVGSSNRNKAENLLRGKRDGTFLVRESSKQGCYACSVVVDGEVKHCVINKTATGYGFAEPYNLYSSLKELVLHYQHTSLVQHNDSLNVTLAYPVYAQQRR
Protocol: as §1

MRC-5 cells = assay: inhibitory activity on normal cells, MRC-5; type: cell-based; conditions: Homo sapiens, MRC5
Description: (§4) Several clinical PI3K candidates were severely intolerable to patients due to fatal hepatotoxicity and, thus, failed in clinical trials. Thus, evaluating the selectivity of compounds toward normal cells might reduce the risk of clinical failure of new compounds.

A2780 cells [4] = assay: MTT antiproliferative assay, A2780; type: cell-based; conditions: Homo sapiens
Protocol: as §1

U87MG cells = assay: MTT antiproliferative assay, U87MG; type: cell-based; conditions: Homo sapiens, U-87 MG
Protocol: as §1

PI3Kδ = PI3Kδ (Homo sapiens, UniProt O00329); assay: in vitro PI3Kδ inhibition assay (isoform selectivity); type: biochemical; conditions: Table 4
PI3Kδ, sequence (O00329 whole entry, canonical isoform): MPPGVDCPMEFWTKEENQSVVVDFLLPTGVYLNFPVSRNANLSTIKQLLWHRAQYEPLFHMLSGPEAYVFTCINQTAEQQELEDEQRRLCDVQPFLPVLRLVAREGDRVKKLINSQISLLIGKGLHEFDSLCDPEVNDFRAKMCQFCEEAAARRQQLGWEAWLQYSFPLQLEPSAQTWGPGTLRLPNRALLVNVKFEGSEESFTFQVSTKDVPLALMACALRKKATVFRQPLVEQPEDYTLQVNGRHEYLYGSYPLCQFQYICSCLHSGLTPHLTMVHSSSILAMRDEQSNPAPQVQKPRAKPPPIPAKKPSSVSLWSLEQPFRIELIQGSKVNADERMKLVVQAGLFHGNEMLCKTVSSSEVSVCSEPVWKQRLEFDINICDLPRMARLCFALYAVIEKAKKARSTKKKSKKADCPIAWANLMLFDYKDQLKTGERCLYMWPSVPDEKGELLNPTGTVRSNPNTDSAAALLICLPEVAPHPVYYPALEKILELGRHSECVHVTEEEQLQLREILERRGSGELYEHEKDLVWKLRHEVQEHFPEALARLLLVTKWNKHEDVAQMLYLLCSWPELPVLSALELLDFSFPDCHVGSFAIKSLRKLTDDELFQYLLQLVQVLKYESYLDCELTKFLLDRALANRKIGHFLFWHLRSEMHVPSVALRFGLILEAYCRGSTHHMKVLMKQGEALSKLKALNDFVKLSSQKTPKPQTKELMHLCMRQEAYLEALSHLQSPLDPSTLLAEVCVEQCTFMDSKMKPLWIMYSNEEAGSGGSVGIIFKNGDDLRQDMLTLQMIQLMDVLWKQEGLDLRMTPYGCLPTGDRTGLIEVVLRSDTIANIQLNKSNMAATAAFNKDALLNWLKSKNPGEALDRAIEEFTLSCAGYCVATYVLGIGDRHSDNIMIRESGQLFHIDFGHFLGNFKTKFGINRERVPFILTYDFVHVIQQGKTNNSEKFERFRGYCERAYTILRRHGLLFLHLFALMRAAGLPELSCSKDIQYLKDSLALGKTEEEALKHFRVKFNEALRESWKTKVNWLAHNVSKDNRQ
PI3Kδ, sequence (P27986 whole entry partner, canonical isoform): as the sequence (P27986 whole entry partner, canonical isoform) above
Protocol: as §1

PI3Kγ = PI3Kγ (Homo sapiens, UniProt P48736); assay: in vitro PI3Kγ inhibition assay (isoform selectivity); type: biochemical; conditions: Table 4
PI3Kγ, sequence (P48736 whole entry, canonical isoform): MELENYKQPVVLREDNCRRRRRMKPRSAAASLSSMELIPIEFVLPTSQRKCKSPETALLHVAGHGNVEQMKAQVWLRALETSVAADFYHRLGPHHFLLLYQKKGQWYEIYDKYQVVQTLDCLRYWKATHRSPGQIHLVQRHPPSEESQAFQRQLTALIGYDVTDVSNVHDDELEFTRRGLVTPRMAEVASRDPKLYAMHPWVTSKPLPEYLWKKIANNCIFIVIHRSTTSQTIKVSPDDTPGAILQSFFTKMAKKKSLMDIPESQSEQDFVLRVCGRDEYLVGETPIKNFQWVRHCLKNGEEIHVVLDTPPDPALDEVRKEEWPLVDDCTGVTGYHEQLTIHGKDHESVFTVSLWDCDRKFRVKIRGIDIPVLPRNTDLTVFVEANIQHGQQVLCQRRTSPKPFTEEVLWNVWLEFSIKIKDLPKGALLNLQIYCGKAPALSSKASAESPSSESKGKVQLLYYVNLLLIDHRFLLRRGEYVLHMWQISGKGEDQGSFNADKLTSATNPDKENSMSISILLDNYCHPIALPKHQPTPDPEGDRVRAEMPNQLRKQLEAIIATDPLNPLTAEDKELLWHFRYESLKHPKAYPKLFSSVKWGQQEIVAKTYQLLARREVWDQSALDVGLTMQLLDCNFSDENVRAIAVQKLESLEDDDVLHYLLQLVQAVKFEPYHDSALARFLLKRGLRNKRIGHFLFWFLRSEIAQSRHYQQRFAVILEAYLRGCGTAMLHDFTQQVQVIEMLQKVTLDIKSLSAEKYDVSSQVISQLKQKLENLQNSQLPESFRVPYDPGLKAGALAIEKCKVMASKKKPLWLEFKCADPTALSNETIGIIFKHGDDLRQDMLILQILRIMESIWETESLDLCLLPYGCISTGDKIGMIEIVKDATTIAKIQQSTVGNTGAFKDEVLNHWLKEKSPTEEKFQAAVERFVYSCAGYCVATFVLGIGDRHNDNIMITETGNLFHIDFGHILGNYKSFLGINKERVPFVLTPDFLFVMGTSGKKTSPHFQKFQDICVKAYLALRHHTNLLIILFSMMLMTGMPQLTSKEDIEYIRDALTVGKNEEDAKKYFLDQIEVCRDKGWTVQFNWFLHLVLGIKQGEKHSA
Protocol: as §1

PI3Kα = PI3Kα (Homo sapiens, UniProt P42336); assay: in vitro PI3Kα kinase inhibition assay; type: biochemical
PI3Kα, sequence (P42336 whole entry): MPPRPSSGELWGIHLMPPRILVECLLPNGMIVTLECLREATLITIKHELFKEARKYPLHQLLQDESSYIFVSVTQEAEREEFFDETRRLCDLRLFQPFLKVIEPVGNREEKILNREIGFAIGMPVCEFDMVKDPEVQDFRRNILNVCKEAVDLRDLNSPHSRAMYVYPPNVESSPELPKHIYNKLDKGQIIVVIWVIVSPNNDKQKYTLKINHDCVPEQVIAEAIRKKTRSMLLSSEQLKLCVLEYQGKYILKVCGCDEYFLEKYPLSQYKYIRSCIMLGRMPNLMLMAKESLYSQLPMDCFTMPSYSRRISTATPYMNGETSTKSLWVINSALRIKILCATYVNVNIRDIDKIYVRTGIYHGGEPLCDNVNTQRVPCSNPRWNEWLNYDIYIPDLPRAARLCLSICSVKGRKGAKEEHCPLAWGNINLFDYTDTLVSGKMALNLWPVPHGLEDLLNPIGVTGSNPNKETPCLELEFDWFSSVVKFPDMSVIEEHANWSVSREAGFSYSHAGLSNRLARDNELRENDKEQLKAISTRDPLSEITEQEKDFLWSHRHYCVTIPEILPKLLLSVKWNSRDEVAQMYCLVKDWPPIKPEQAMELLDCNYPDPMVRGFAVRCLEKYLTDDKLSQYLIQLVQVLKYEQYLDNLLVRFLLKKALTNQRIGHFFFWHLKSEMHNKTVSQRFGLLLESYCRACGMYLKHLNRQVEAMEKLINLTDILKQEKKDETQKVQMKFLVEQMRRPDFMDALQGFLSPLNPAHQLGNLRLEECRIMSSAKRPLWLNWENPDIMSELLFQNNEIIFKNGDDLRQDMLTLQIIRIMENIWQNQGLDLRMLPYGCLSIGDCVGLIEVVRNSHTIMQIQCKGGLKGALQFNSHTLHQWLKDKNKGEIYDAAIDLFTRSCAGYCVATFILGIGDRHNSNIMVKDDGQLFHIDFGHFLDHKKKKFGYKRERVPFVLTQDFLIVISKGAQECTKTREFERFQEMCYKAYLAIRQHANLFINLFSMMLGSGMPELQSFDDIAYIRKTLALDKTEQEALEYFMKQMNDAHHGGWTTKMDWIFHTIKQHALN
PI3Kα, sequence (P27986 whole entry partner): as the sequence (P27986 whole entry partner, canonical isoform) above
Protocol: as §1

HL-7702 cells = assay: inhibitory activity on normal cells, HL-7702; type: cell-based; conditions: Homo sapiens, L02
Description: as §4

[5] = system: Salmonella typhimurium TA98; assay: Ames test, plate incorporation, TA98; type: cell-based
Protocol: as §1, §2

[6] = liver microsome stability, human; type: in vitro ADME; conditions: liver microsomes
Protocol: (§5) The metabolic stability of 17p was evaluated in liver microsome assays, which measure clearance and half-life in rats and humans.

MCF7 cells = assay: MTT antiproliferative assay, MCF7; type: cell-based; conditions: Homo sapiens
Protocol: as §1

mTOR = mTOR (Homo sapiens, UniProt P42345); assay: in vitro mTOR inhibition assay (selectivity); type: biochemical; conditions: Table 4
Protocol: as §1

[7] = liver microsome stability, rat; type: in vitro ADME; conditions: liver microsomes
Protocol: as §5

[8] = read-out: T1/2 liver microsomes

N#Cc1c(-c2cnc(N)nc2C(F)(F)F)nc(N2CCOCC2)nc1N1CCOCC1 [Compound 17p]
Cl_F_pred ([1]; female SD rats, 2.5 mg/kg iv): 1.5 mL/min/kg
Cl_F_pred (plasma clearance) ([1]; female SD rats, 10 mg/kg po): 3.3 mL/min/kg
area under the curve ([1]; female SD rats, 10 mg/kg po): 50,618.9
Cl_F_pred ([1]; male SD rats, 2.5 mg/kg iv): 16.3 mL/min/kg
Cl_F_pred ([1]; male SD rats, 10 mg/kg po): 109 mL/min/kg
AUC(0-t) ([1]; female SD rats, 2.5 mg/kg iv): 27400 ng·h/mL
Cmax ([1]; female SD rats, 2.5 mg/kg iv): 4280 ng/mL
half-life ([1]; female SD rats, 2.5 mg/kg iv): 2.79 h
AUC(0-t) ([1]; female SD rats, 10 mg/kg po): 50600 ng·h/mL
Cmax ([1]; female SD rats, 10 mg/kg po): 4860 ng/mL
Tmax ([1]; female SD rats, 10 mg/kg po): 3.33 h
half-life ([1]; female SD rats, 10 mg/kg po): 2.03 h
bioavailability ([1]; female SD rats, 10 mg/kg po): 46.2%
AUC(0-t) ([1]; male SD rats, 2.5 mg/kg iv): 2690 ng·h/mL
Cmax ([1]; male SD rats, 2.5 mg/kg iv): 3120 ng/mL
half-life ([1]; male SD rats, 2.5 mg/kg iv): 0.68 h
AUC(0-t) ([1]; male SD rats, 10 mg/kg po): 1860 ng·h/mL
Cmax ([1]; male SD rats, 10 mg/kg po): 538 ng/mL
Tmax ([1]; male SD rats, 10 mg/kg po): 0.67 h
half-life ([1]; male SD rats, 10 mg/kg po): 3.19 h
bioavailability ([1]; male SD rats, 10 mg/kg po): 17.3%
Number of bacterial colony revertant mutations (mean ± SD) TA100 ([2]; 3 μg/dish): 88 ± 7
Number of bacterial colony revertant mutations (mean ± SD) TA100 ([2]; 10 μg/dish): 92 ± 3
Number of bacterial colony revertant mutations (mean ± SD) TA100 ([2]; 30 μg/dish): 86 ± 4
Number of bacterial colony revertant mutations (mean ± SD) TA100 ([2]; 100 μg/dish): 91 ± 6
Number of bacterial colony revertant mutations (mean ± SD) TA100 ([2]; 300 μg/dish): 90 ± 3
Number of bacterial colony revertant mutations (mean ± SD) TA100 ([2]; 1,000 μg/dish): 91 ± 1
Number of bacterial colony revertant mutations (mean ± SD) TA100 ([2]; 5,000 μg/dish): 87 ± 1
mutagenic effect on TA100 ([2]; in words): no mutagenic effect
IC50 (DU145 cells): 8770 ± 1160 nM
cytotoxicity ED50 (TUNEL, logistic regression) (A2780 cells [3]): 5.345 µM
inhibition of hERG potassium currents (hERG potassium currents): no obvious inhibition
IC50 (hERG): 390 ± 30 nM
IC50 (PI3Kβ): 125 ± 10.1 nM
IC50 (MRC-5 cells): 8470 ± 770 nM
IC50 (A2780 cells [4]): 850 ± 110 nM
IC50 (U87MG cells): 4720 ± 370 nM
IC50 (PI3Kδ): 15.4 ± 1.9 nM
IC50 (PI3Kγ): 286 ± 39.6 nM
IC50 (PI3Kα; Figure 5 activity bins, read-out: IC50 range in SAR figure (PI3Kα)): 30 to 300 nM
IC50 (PI3Kα; Table 4, read-out: IC50 PI3Kα (isoform selectivity study)): 30.3 ± 3.5 nM
IC50 (PI3Kα; mean of three independent experiments, read-out: IC50 against PI3Kα): 32.4 ± 4.1 nM
IC50 (HL-7702 cells): 4620 ± 520 nM
Number of bacterial colony revertant mutations (mean ± SD) TA98 ([5]; 3 μg/dish): 38 ± 7
Number of bacterial colony revertant mutations (mean ± SD) TA98 ([5]; 10 μg/dish): 41 ± 4
Number of bacterial colony revertant mutations (mean ± SD) TA98 ([5]; 30 μg/dish): 37 ± 11
Number of bacterial colony revertant mutations (mean ± SD) TA98 ([5]; 100 μg/dish): 43 ± 4
Number of bacterial colony revertant mutations (mean ± SD) TA98 ([5]; 300 μg/dish): 29 ± 4
Number of bacterial colony revertant mutations (mean ± SD) TA98 ([5]; 1,000 μg/dish): 44 ± 5
Number of bacterial colony revertant mutations (mean ± SD) TA98 ([5]; 5,000 μg/dish): 40 ± 4
mutagenic effect on TA98 ([5]; in words): no mutagenic effect
microsomal CLint ([6]; read-out: CL liver microsomes): 10.8 µL/min/mg
half-life [6, 8]: 2.13 h
IC50 (MCF7 cells): 1590 ± 80 nM
IC50 (mTOR): 1420 ± 184 nM
microsomal CLint ([7]; read-out: CL liver microsomes): 36 µL/min/mg
half-life [7, 8]: 0.642 h
